Results published in PubChem BioAssay AID624404 (Broad Institute, 2012).
Records with an inconclusive call do not appear.

test system: D54 LucT luciferase reporter counterscreen, luminescence, 24 h; assay: reporter signal increase, D54 LucT cells – cell-based, luminescence, cherry pick, counter-screen for N-linked glycosylation inhibitor project, dose response (AID 624404)

Structure (SMILES)	AC35 [nM]
CC(Nc1nc(-c2ccccc2O)nc2ccccc12)c1ccccc1 (configuration not stated)	39.5
CC(=O)Nc1cccc(-c2ccnc3c2CC(C)(C(=O)NCC2CC2)O3)c1 (configuration not stated)	11500
CC(C)(C)S(=O)(=O)N1C[C@@H]2CC/C=C\C/C(c3ccccc3)=C\2[C@H]1CCO	645
Cc1cnc2cc(Cl)c(Cl)cc2n1	5410
COc1ccccc1N1CC(O)=C(c2nc3ccccc3c(=O)[nH]2)C1=N	5720
COc1ccc(C(=O)/C=C/c2ccc(OC)c(O)c2)c(F)c1	219
O=C1C=C(c2cccs2)C[C@H](c2ccccc2)[C@H]1n1nnc([N+](=O)[O-])n1	208
COc1ccc2c(c1)[C@H]1[C@H](CO2)[C@H](c2ccccc2)[C@]2(C)C(=O)Nc3ccc(Br)cc3C(=O)N12	233
CCc1ccc(CNC(=O)Cc2ccc(NC(=O)C3=C(C)OCCS3)cc2)cc1	320
C=CCn1c(O)c(/C=C2/C=CC=N2)c(=O)[nH]c1=O	14300
CCOC(=O)[C@H]1[C@H]2COc3ccc(Br)cc3[C@@H]2N2C(=O)c3cc(OC)c(OC)cc3NC(=O)[C@@]12C	3990
CC(=O)OC1CC[C@]2(C#N)[C@H]3CC[C@]4(C)[C@H](C5C=CC(=O)O5)CCC4(O)C3CCC2(O)C1 (some centres not stated)	2850
COc1ccc2c(c1)C(=O)N1[C@H]3c4cc(Cl)ccc4OC[C@@H]3[C@H](c3ccccc3)[C@]1(C)C(=O)N2	981
O=C(/C=C/c1ccccc1)c1ccccc1	1200
O=C(O)c1ccc(N/N=C/c2ccc(-c3ccc(Cl)cc3Cl)o2)cc1	1470
COc1cc(-c2coc3c(C(=O)NCc4ccc(OC)c(OC)c4)cccc23)ccc1O	2800
COc1ccccc1N=CC1=C(O)CC(c2ccccc2)CC1=O (configuration not stated)	173
COc1cccc(-c2cnc3c(NC(C)=O)cc(-c4cc(F)ccc4OC)cn23)c1	4270
Cn1c(-c2ccccc2)c(/C=N/NC(=O)c2cccnc2)c2ccccc21	171
O=C(N/N=C/c1cccnc1)c1cc(-c2ccccc2OCc2ccccc2)n[nH]1	2460
COc1ccc(C(=O)/C=C/c2ccc(-c3ccccc3)cc2)cc1CSCC(=O)O	875
COc1cc2c(cc1OC)CN(c1ccc(-c3ccccc3OC)nn1)CC2	7870

Structure (SMILES)	AC35 [nM]
Cc1cccc(CCNC(=O)CCCOc2cc(=O)n(C)c3ccccc23)c1	321
NNC(=O)c1ccc2nc(-c3ccc(Br)cc3)cn2c1	780
Cc1ccc(C(=O)c2coc3c2C(=O)C(=O)c2ccccc2-3)cc1	4050
NC(=O)CC(NC(=O)c1ccc(Br)cc1)c1ccc(N2CCCCCC2)c([N+](=O)[O-])c1 (configuration not stated)	1090
O=C(N/N=C/c1c(-c2ccccc2)[nH]c2ccccc12)c1cccnc1	1280
Nc1nc(Nc2ccccc2)sc1C(=O)c1ccccc1	272
O=C(/C=C/c1cccc([N+](=O)[O-])c1)c1ccc2c(c1)OCCO2	247
CS(=O)(=O)c1cccc(C(=O)Nc2ccc(-c3nc4ccccc4[nH]3)cc2)c1	3750
NC(=O)c1cccc(-c2ccnc3c2CC(C(=O)NCc2ccccc2)O3)c1 (configuration not stated)	283
O=C(Nc1cc(Cl)ccc1N1CCOCC1)c1ccc(N2CCCC2=O)cc1	212
C[C@@H](NC(=O)c1ncn2c1c(=O)[nH]c1ccc(Br)cc12)c1ccccc1	210
COc1ccccc1/C=C/C(=O)/C=C/c1ccccc1O	266
Cc1ccnc(NC(=O)Nc2ccc3c(c2)N(C)C(=O)CS3)c1	8.68
COc1cccc(/C=N/NC(=O)c2cc3c(OC)c(OC)ccc3[nH]2)c1OC	4940
Cc1cc(=O)oc2cc(OCC(=O)N3c4ccccc4CC3C)ccc12 (configuration not stated)	1370
O=C1NC(=O)N(Cc2ccco2)C(=O)/C1=C/C=C/c1ccco1	12300
O=C(NCCCn1ccnc1)c1cc(-c2cccs2)on1	2020
CC(=O)c1c(C)[nH]c(C(=O)Nc2cccc(S(=O)(=O)N3CCCC3)c2)c1C	3950
C[C@H](CO)N1C[C@H](C)[C@@H](CN(C)S(=O)(=O)c2ccccc2)Oc2c(NC(=O)Cc3ccccc3)cccc2C1=O	2240
O=C(C[C@@H]1C/C=C/CC[C@H](Cc2ccc(F)cc2)C(=O)OC[C@@H](Cc2ccccc2)NC1=O)N[C@H](CO)Cc1ccccc1	4640
C[C@H](CO)N1C[C@H](C)[C@@H](CN(C)S(=O)(=O)c2cccs2)Oc2c(NC(=O)Cc3ccccc3)cccc2C1=O	2960
Cc1ccc(NCCN(C)C)c2c(=O)c3cc(O)ccc3sc12	5710

Structure (SMILES)	AC35 [nM]
CCN1C(=O)c2cccc3c(S(=O)(=O)Nc4ccccn4)ccc1c23	1860
COc1ccc(CCCC(=O)NCc2ccccc2)cc1C	2780
COc1ccc(-n2c(=S)[nH]c3cc(C(=O)NC4CCCCC4)ccc3c2=O)c(OC)c1	414
Cc1ccc(C(=O)N2CCN(Cc3ccccc3)CC2)cc1S(=O)(=O)N1CCOCC1	2960
CCC(C)C(=O)OC1CCC=C2C=CC(C)C(CCC3CC(O)CC(=O)O3)C21 (configuration not stated)	499
CC(C)(C)c1ccc(OCc2ccc(C(=O)N3CCOCC3)o2)cc1	1460
C[C@@]12C(=O)Nc3cc(Cl)ccc3C(=O)N1[C@H]1c3cc(Cl)ccc3OC[C@@H]1[C@@H]2c1ccccc1	1440
Cc1nnc2c(NC3CCCCC3)nc3ccccc3n12	3510
Cc1ccc2c(CC(=O)NCc3ccco3)coc2c1C	4460
Cc1ccc(C)n1-c1ccc(C(=O)/C=C/N(C)C)cc1	1050
CC(=O)Nc1sc(NC(=O)c2ccccc2)nc1-c1cccs1	8340
O=C(Nc1ccccc1N1CCOCC1)c1ccc2nc[nH]c2c1	852
Cc1cc(=O)n2c3c(c4c(cc13)c(CN(C)C)cc(=O)n4C)OC2	31.5
CN(Cc1ccccc1)c1nc2c(c(=O)n(C)c(=O)n2C)n1CCCc1ccccc1	893
CCOc1cc(N2CCOCC2)c(OCC)cc1NC(=O)c1[nH]c(C)c(C(C)=O)c1C	10.7
COCCCNC(=O)c1sc2ncn(CC(=O)Nc3ccc(C)c(Cl)c3)c(=O)c2c1C	2510
Cc1nnc2c3ccccc3c(-c3ccccc3)nn12	221
CC(C)(C)S(=O)N1Cc2cc(C(=O)NCC(F)(F)F)nc(-c3cccc(-c4cccc(F)c4)c3)c2[C@@H]1CCO (some centres not stated)	1780
CCN(CC)c1ccc(/C=N/n2nnnc2N)c(O)c1	336
c1ccc2c(-c3nc4ccccc4[nH]3)cccc2c1	911
COc1ccccc1-c1c(C#N)c(N)nc2c1CCc1ccccc1-2	1110
O=C(NCCN1C(=O)S/C(=C\c2ccccc2Cl)C1=O)C1=COCCO1	4980

Structure (SMILES)	AC35 [nM]
CCOC(=O)c1[nH]c(C)c(C(=O)c2ccc(C)cc2)c1C	1100
Cc1cccn2c(=O)c3cc(C(=O)N4CCC5(CC4)OCCO5)n(C)c3nc12	310
C[C@@]12C(=O)Nc3cc(F)c(F)cc3C(=O)N1[C@H]1c3ccccc3OC[C@@H]1[C@@H]2c1ccccc1	746
OCC1OC(n2cnc3c(SCc4ccccc4)ncnc32)C(O)C1O (configuration not stated)	733
COc1cc(CN2CCc3ccccc3C2)ccc1O	2000
O=C(C=Cc1cccc(O)c1)c1ccccc1O	4500
COc1ccc2nc(C)cc(Nc3ccc(N4CCN(C)CC4)cc3)c2c1	4750
Cc1ccc(Nc2nc(-c3sc(C)nc3C)cs2)cc1	46.9
COCCCNC(=O)c1ccc(-c2c(C)noc2C)c2ccoc12	2330
COc1cc(OC)cc(C(=O)NCC(=O)Nc2ccc(-c3ccccc3)cc2)c1	501
COc1ccc(C2=NOC(C(=O)NCc3cccs3)C2)cc1 (configuration not stated)	1140
O=C(CSc1nnc(-c2cc3ccccc3cc2O)n1Cc1ccco1)N1CCc2ccccc2C1	1280
CC(=O)Nc1cccc(NC(=O)c2ccccc2OCc2ccccc2)c1	3830
CCCCCC(O)C=CC1C(O)CC(O)C1CC=CCCCC(=O)O (configuration not stated)	3.82
CC(=O)Nc1ccc(C(=O)N/N=C/c2ccccc2OCc2ccccc2)cc1	4360
COc1ccc2c(c1)C(=O)N1[C@H]3c4cc(C)ccc4OC[C@@H]3[C@H](c3ccccc3)[C@]1(C)C(=O)N2	933
Cc1ccc(NC(=O)C(Cc2ccccc2)N2C(=O)C3C4CCC(C4)C3C2=O)cc1Cl (configuration not stated)	1680
COc1ccccc1NS(=O)(=O)c1ccc(C(=O)Nc2ncccc2O)cc1	8860
CC(C)(C)c1ccc(OCC(=O)Nc2ccncc2)c(Br)c1	35.6
C[C@@]12C(=O)Nc3cc(Cl)ccc3C(=O)N1[C@H]1c3cc(Br)ccc3OC[C@@H]1[C@@H]2c1ccccc1	2550
O=c1cc(-c2ccccc2)nc2cc(-c3ccc(F)cc3)[nH]n12	2190
Cc1cc2cc(CNC(=O)Cc3cccs3)ccc2n1C	13600

Structure (SMILES)	AC35 [nM]
COc1ccc2nc3ccccc3nc2c1NC(=O)c1ccccc1Cl	17900
CC(C)c1ccc(OCc2ccc(C(=O)N3CCCC3)o2)cc1	850
CC12CC[C@H]3[C@@H](CCC4(O)C[C@H](O)CCC34/C=N/NC(=O)c3ccccc3O)C1(O)CCC2C1=CC(=O)OC1 (some centres not stated)	6220
CCN1C(=O)Nc2cccc3cccc1c23	3140
Cc1cccc(Nc2nc(N)nc(-c3oc4ccccc4c3C)n2)c1	1570
OC1CCCN(Cc2ccc3ccc4cccc5ccc2c3c45)C1 (configuration not stated)	890
Cc1ccc(C(=O)NC(=C(Cl)Cl)S(=O)(=O)c2ccc(Cl)cc2)cc1	12700
O=C(CCl)Nc1cccc(S(=O)(=O)NC2=NCCC2)c1	1620
COc1cccc(C(=O)Nc2ccc3c(c2)C(=O)c2ccccc2C3=O)c1	121
CC(C)C1N=C(c2ccc3c(c2)OCO3)CC(c2ccccc2O)N1 (configuration not stated)	3510
COc1ccc(OC)c(-c2cc(-c3cccnc3)nc(N)c2C#N)c1	227
Cc1ccc2c(c1)[C@H]1[C@H](CO2)[C@H](c2ccccc2)[C@]2(C)C(=O)Nc3cc(Cl)ccc3C(=O)N12	1060
O=C(CNC(=O)c1ccc(Br)o1)Nc1cccc(-c2cnc3ccccc3n2)c1	3530
O=C(Nc1ccccc1-c1ccccc1)C1CCCC1	1220
COc1ccc([C@@H]2[C@@H]3C(=O)N(C(C)(C)C)C(=O)[C@@H]3[C@]3(Cc4ccccc4)C(=O)N(c4cccc(C)c4)C(=O)N23)cc1	843
CCOC(=O)c1c(C)c(C(=O)Nc2ccc(N(C)C)cc2)c(C)n1CC	3560
O=C(COC(=O)Cn1cnc2ccccc21)Nc1cccc2c1C(=O)c1ccccc1C2=O	459
CC(=O)c1cccc(Nc2cc(C)nc3c(C)cc(C)cc23)c1	23.4
Cc1ccc(C)n1-c1cccc(NC(=O)c2ccccc2)c1	7120
